Reference: US11000033B2, “Ketone or oxime compound, and herbicide” (NISSAN CHEMICAL CORPORATION, priority 2014, dated 2021)

How the values were obtained:
Assay type in all cases: in vivo
[1] = tested on: Echinochloa oryzacola Vasing.; assay: Test Example 1: herbicidal activity, application before weed generation in submerged conditions (symbol A); conditions: application herbicide amount 320 g/ha
Source text: (§1) Herbicidal Activity Test by Application Before Weed Generation in Submerged Conditions
(§2) After alluvial soil was placed into 1/10000 are of Wagner pot, water was poured and mixed to form a submerged condition having a water depth of 4 cm. Seeds of Echinochloa oryzacola Vasing., Scirpus juncoides, and Monochoria vaginalis were sowed in a mixed manner in the above pot and thereafter 2.5 leaf stage rice plant seedlings were transplanted thereto. On the day of sowing seeds, the emulsion agent of the compound of the present invention prepared in accordance with Formulation Example 2 was diluted with water so as to be a predetermined herbicide amount and the diluted emulsion agent was applied to the surface of the water. The pot was placed in a greenhouse of 25° C. to 30° C. to grow plant. 3 weeks later from the herbicide application, the effect to each plant was investigated in accordance with the following criteria.
(§3) 5 Herbicidal ratio of 90% or more (almost completely withered)
(§4) 4 Herbicidal ratio of 70% or higher and lower than 90%
(§5) 3 Herbicidal ratio of 40% or higher and lower than 70%
(§6) 2 Herbicidal ratio of 20% or higher and lower than 40%
(§7) 1 Herbicidal ratio of 5% or higher and lower than 20%
(§8) 0 Herbicidal ratio of 5% or lower (almost no effect)

Scirpus juncoides = assay: Test Example 1: herbicidal activity, application before weed generation in submerged conditions (symbol B); conditions: application herbicide amount 320 g/ha
Source text: as §1, §2, §3, §4, §5, §6, §7, §8

Monochoria vaginalis = assay: Test Example 1: herbicidal activity, application before weed generation in submerged conditions (symbol C); conditions: application herbicide amount 320 g/ha
Source text: as §1, §2, §3, §4, §5, §6, §7, §8

transplanted rice plant = assay: Test Example 1: effect on crop, application before weed generation in submerged conditions (symbol a); conditions: application herbicide amount 320 g/ha
Experimental: as §1
as §2, with “On the day of sowing seeds, the emulsion agent of the compound of the present invention prepared in accordance with Formulation Example 2 was diluted with water so as to be a predetermined herbicide amount and the diluted emulsion agent was applied to the surface of the water.” left out
as §3, §4, §5, §6, §7, §8

[2] = tested on: Echinochloa crus-galli var. crus-galli; assay: Test Example 3: herbicidal effect by foliage application, Wagner pot (symbol H); conditions: application herbicide amount 320 g/ha
Procedure, shortened: (§9)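 Herbicidal activity was rated three weeks after a foliar spray of diluted emulsion concentrate, applied at a predetermined dose to plants grown for 14 days from seed in waterlogged alluvial soil within a 25–30 °C greenhouse.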

Leptochloa chinensis = assay: Test Example 3: herbicidal effect by foliage application, Wagner pot (symbol D); conditions: application herbicide amount 320 g/ha
Procedure, shortened: as §9

Cyperus difformis = assay: Test Example 3: herbicidal effect by foliage application, Wagner pot (symbol E); conditions: application herbicide amount 320 g/ha
Procedure, shortened: as §9

[3] = tested on: directly sowed rice plant; assay: Test Example 3: effect on crop by foliage application, Wagner pot (symbol b); conditions: application herbicide amount 320 g/ha
Procedure, shortened: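 Alluvial soil in a 1/10000-are Wagner pot was flooded to a water depth of 0.1–0.5 cm. Echinochloa crus-galli var. crus-galli, Leptochloa chinensis, Cyperus difformis and rice were sown into it and grown in a greenhouse at 25–30 °C.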

Digitaria ciliaris = assay: Test Example 5: herbicidal effect by foliage application, plastic box (symbol F); conditions: 320 g/ha, 3 weeks after application
Procedure, shortened: (§10)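 Greenhouse foliar test: seedlings at 14 days, grown 25° C. to 30° C. in sterilized diluvial soil; compound applied as an aqueous dilution of an emulsion; response read 3 weeks after spraying.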

Setaria viridis = assay: Test Example 5: herbicidal effect by foliage application, plastic box (symbol G); conditions: 320 g/ha, 3 weeks after application
Procedure, shortened: as §10

[4] = tested on: Echinochloa crus-galli var. crus-galli; assay: Test Example 5: herbicidal effect by foliage application, plastic box (symbol H); conditions: 320 g/ha, 3 weeks after application
Procedure, shortened: as §10

Avena fatua = assay: Test Example 5: herbicidal effect by foliage application, plastic box (symbol I); conditions: 320 g/ha, 3 weeks after application
Procedure, shortened: as §10

Alopecurus myosuroides = assay: Test Example 5: herbicidal effect by foliage application, plastic box (symbol J); conditions: 320 g/ha, 3 weeks after application
Procedure, shortened: as §10

Lolium multiflorum Lam. = assay: Test Example 5: herbicidal effect by foliage application, plastic box (symbol K); conditions: 320 g/ha, 3 weeks after application
Procedure, shortened: as §10

Apera spica-venti = assay: Test Example 5: herbicidal effect by foliage application, plastic box (symbol L); conditions: 320 g/ha, 3 weeks after application
Procedure, shortened: as §10

Abutilon theophrasti = assay: Test Example 5: herbicidal effect by foliage application, plastic box (symbol M); conditions: 320 g/ha, 3 weeks after application
Procedure, shortened: as §10

Amaranthus retroflexus = assay: Test Example 5: herbicidal effect by foliage application, plastic box (symbol N); conditions: 320 g/ha, 3 weeks after application
Procedure, shortened: as §10

Chenopodium album = assay: Test Example 5: herbicidal effect by foliage application, plastic box (symbol O); conditions: 320 g/ha, 3 weeks after application
Procedure, shortened: as §10

Stellaria media = assay: Test Example 5: herbicidal effect by foliage application, plastic box (symbol P); conditions: 320 g/ha, 3 weeks after application
Procedure, shortened: as §10

Galium spurium = assay: Test Example 5: herbicidal effect by foliage application, plastic box (symbol Q); conditions: 320 g/ha, 3 weeks after application
Procedure, shortened: as §10

Veronica persica = assay: Test Example 5: herbicidal effect by foliage application, plastic box (symbol R); conditions: 320 g/ha, 3 weeks after application
Procedure, shortened: as §10

corn = assay: Test Example 5: effect on crop by foliage application, plastic box (symbol c); conditions: 320 g/ha, 3 weeks after application
Procedure, shortened: (§11)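 Soil: sterilized diluvial. Container: plastic box, 21 × 13 cm, 7 cm deep. Sowing: spot-like, ~1.5 cm cover. Growth: greenhouse, 25° C. to 30° C.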

soybean = assay: Test Example 5: effect on crop by foliage application, plastic box (symbol d); conditions: 320 g/ha, 3 weeks after application
Procedure, shortened: as §11

rice plant = assay: Test Example 5: effect on crop by foliage application, plastic box (symbol b); conditions: 320 g/ha, 3 weeks after application
Procedure, shortened: as §11

wheat = assay: Test Example 5: effect on crop by foliage application, plastic box (symbol e); conditions: 320 g/ha, 3 weeks after application
Procedure, shortened: as §11

beet = assay: Test Example 5: effect on crop by foliage application, plastic box (symbol f); conditions: 320 g/ha, 3 weeks after application
Procedure, shortened: as §11

rapeseed = assay: Test Example 5: effect on crop by foliage application, plastic box (symbol g); conditions: 320 g/ha, 3 weeks after application
Procedure, shortened: as §11

`COCCOc1cc(C)c(C2=C(O)CC(CC(C)=NOC)C2=O)c(C)c1` (stereo not drawn) [6-098] was tested, and the “Herbicidal effect grade, A: Echinochloa oryzacola Vasing.” value [1] was 0 (Herbicidal ratio of 5% or lower (almost no effect)), the “Herbicidal effect grade, B: Scirpus juncoides” value (Scirpus juncoides) was 1 (Herbicidal ratio of 5% or higher and lower than 20%) and the “Herbicidal effect grade, C: Monochoria vaginalis” value (Monochoria vaginalis) was 0 (Herbicidal ratio of 5% or lower (almost no effect)). For the same compound, the “Effect grade on crop, a: transplanted rice plant” value (transplanted rice plant) was 1 (Herbicidal ratio of 5% or higher and lower than 20%), the “herbicidal effect on H (Echinochloa crus-galli var. crus-galli), grade 0-5” value [2] was 3 (Herbicidal ratio of 40% or higher and lower than 70%) and the “herbicidal effect on D (Leptochloa chinensis), grade 0-5” value (Leptochloa chinensis) was 5 (Herbicidal ratio of 90% or more (almost completely withered)). For the same compound, the “herbicidal effect on E, grade 0-5” value (Cyperus difformis) was 4 (Herbicidal ratio of 70% or higher and lower than 90%), the “effect on crop b (directly sowed rice plant), grade 0-5” value [3] was 5 (Herbicidal ratio of 90% or more (almost completely withered)) and the “F: Digitaria ciliaris, herbicidal effect (criteria of Test Example 1)” value (Digitaria ciliaris) was 3 (Herbicidal ratio of 40% or higher and lower than 70%). For the same compound, the “G: Setaria viridis, herbicidal effect (criteria of Test Example 1)” value (Setaria viridis) was 3 (Herbicidal ratio of 40% or higher and lower than 70%), the “H: Echinochloa crus-galli var. crus-galli, herbicidal effect (criteria of Test Example 1)” value [4] was 2 (Herbicidal ratio of 20% or higher and lower than 40%) and the “I: Avena fatua, herbicidal effect (criteria of Test Example 1)” value (Avena fatua) was 1 (Herbicidal ratio of 5% or higher and lower than 20%). The “J: Alopecurus myosuroides, herbicidal effect (criteria of Test Example 1)” value (Alopecurus myosuroides) was 3 (Herbicidal ratio of 40% or higher and lower than 70%), the “K: Lolium multiflorum Lam., herbicidal effect (criteria of Test Example 1)” value (Lolium multiflorum Lam.) was 5 (Herbicidal ratio of 90% or more (almost completely withered)) and the “L: Apera spica-venti, herbicidal effect (criteria of Test Example 1)” value (Apera spica-venti) was 4 (Herbicidal ratio of 70% or higher and lower than 90%). For the same compound, the “M: Abutilon theophrasti, herbicidal effect (criteria of Test Example 1)” value (Abutilon theophrasti) was 0 (Herbicidal ratio of 5% or lower (almost no effect)), the “N: Amaranthus retroflexus, herbicidal effect (criteria of Test Example 1)” value (Amaranthus retroflexus) was 0 (Herbicidal ratio of 5% or lower (almost no effect)) and the “O: Chenopodium album, herbicidal effect (criteria of Test Example 1)” value (Chenopodium album) was 0 (Herbicidal ratio of 5% or lower (almost no effect)). The “P: Stellaria media, herbicidal effect (criteria of Test Example 1)” value (Stellaria media) was 0 (Herbicidal ratio of 5% or lower (almost no effect)), the “Q: Galium spurium, herbicidal effect (criteria of Test Example 1)” value (Galium spurium) was 0 (Herbicidal ratio of 5% or lower (almost no effect)) and the “R: Veronica persica, herbicidal effect (criteria of Test Example 1)” value (Veronica persica) was 0 (Herbicidal ratio of 5% or lower (almost no effect)). For the same compound, the “c: corn, effect on crop (criteria of Test Example 1)” value (corn) was 1 (Herbicidal ratio of 5% or higher and lower than 20%), the “d: soybean, effect on crop (criteria of Test Example 1)” value (soybean) was 0 (Herbicidal ratio of 5% or lower (almost no effect)) and the “b: directly sowed rice plant, effect on crop (criteria of Test Example 1)” value (rice plant) was 2 (Herbicidal ratio of 20% or higher and lower than 40%). The “e: wheat, effect on crop (criteria of Test Example 1)” value (wheat) was 2 (Herbicidal ratio of 20% or higher and lower than 40%), the “f: beet, effect on crop (criteria of Test Example 1)” value (beet) was 0 (Herbicidal ratio of 5% or lower (almost no effect)) and the “g: rapeseed, effect on crop (criteria of Test Example 1)” value (rapeseed) was 0 (Herbicidal ratio of 5% or lower (almost no effect)).
